The text below walks through data of ChEMBL document CHEMBL1150406, “Novel triterpenoid from Citrus aurantium L. possesses chemopreventive properties against human colon cancer cells” (Bioorg Med Chem, 2008).

In data set [1] the test system is HT-29. As to the kind of experiment: Cytotoxicity against human HT29 cells after 48 hrs by MTT assay. Type of data set: functional, cell-based. A general note: Formazan colour is commonly taken as a measure of viable cells.
For data set [2], the system named is HT-29. The experiment in a line: Cell cycle arrest in human HT29 cells by accumulation at G2/M phase at 5 uM after 48 hrs by flow cytometry. It is filed as functional. On the technique in general: Flow cytometry measures light scatter and fluorescence of single cells or particles in a stream.
The subject of data set [3] is HT-29. The experiment in a line: Cell cycle arrest in human HT29 cells by accumulation at G0/G1 phase at 5 uM after 48 hrs by flow cytometry. It is filed as functional.
Data set [4] deals with HT-29. As to the kind of experiment: Cytotoxicity against human HT29 cells at 10 uM after 24 hrs by MTT assay. It is filed as functional, cell-based.
In data set [5] the test system is HT-29. As to the kind of experiment: Cytotoxicity against human HT29 cells at 5 uM after 72 hrs by MTT assay. Type of data set: functional.
In data set [6] the test system is HT-29. As to the kind of experiment: Cell cycle arrest in human HT29 cells assessed as background aggregates and debris at 10 uM after 48 hrs by flow cytometry. Type of data set: functional.
Data set [7] deals with HT-29. As to the kind of experiment: Induction of apoptosis in human HT29 cells at 10 uM by nuclear staining method. Type of data set: functional, cell-based.
The subject of data set [8] is HT-29. The experiment in a line: Cytotoxicity against human HT29 cells at 2.5 uM after 48 hrs by MTT assay. Type of data set: functional, cell-based.
In data set [9] the test system is HT-29. The experiment in a line: Cell cycle arrest in human HT29 cells assessed as background aggregates and debris at 5 uM after 48 hrs by flow cytometry. It is filed as functional.
In data set [10] the test system is HT-29. As to the kind of experiment: Cell cycle arrest in human HT29 cells by accumulation at G2/M phase at 10 uM after 48 hrs by flow cytometry. It is filed as functional.
The test system of data set [11] is HT-29. As to the kind of experiment: Cell cycle arrest in human HT29 cells by accumulation at S phase at 10 uM after 48 hrs by flow cytometry. It is filed as functional.
Data set [12] in a line: Growth inhibition of monkey COS1 cells by flow cytometry. The conditions noted are these: cos-1. It is filed as cell-based.
For data set [13], the system named is HT-29. The experiment in a line: Cell cycle arrest in human HT29 cells by accumulation at S phase at 5 uM after 48 hrs by flow cytometry. Type of data set: functional.
Data set [14] deals with HT-29. The experiment in a line: Cell cycle arrest in human HT29 cells by accumulation at G0/G1 phase at 10 uM after 48 hrs by flow cytometry. Type of data set: functional.

Calls of active or inactive are those of the source. No cut-off for these calls is given here.

Regarding `CC(C)(O)[C@@H]1CC(=O)[C@]2(C)[C@H](CC[C@@]3(C)[C@H](C4=CC(O)OC4=O)OC(=O)[C@H]4O[C@]432)[C@]12COC(=O)C[C@@H]2O` (stereo partly specified) [ICHANEXIC ACID], the outcome in the data set on HT-29 [1], in the data set on HT-29 [4], in the data set with HT-29 [7] and in the data set with HT-29 [8] was Active. The Activity in the data set with HT-29 [2] is on record as 8.7%; with HT-29 [3] it was 91.3%; in the data set with HT-29 [5], 20%; with HT-29 [6], 75.1%; in the data set on HT-29 [9], 42.9%; in the data set with HT-29 [10] it was 23.8%. The Activity in the data set with HT-29 [11] is 6%; in data set [12], “Not Active”; in the data set with HT-29 [13], 4.1%; in the data set with HT-29 [14] it was 70.2%.

Regarding `CC1(C)OC[C@@]2([C@@H](O)CC(=O)O)[C@H]3CC[C@@]4(C)[C@H](c5ccoc5)OC(=O)[C@H]5O[C@]54[C@]3(C)C(=O)C[C@@H]12` [ISOLIMONOIC ACID], the Activity stood at 6.1% in the data set on HT-29 [2]; 91% in the data set on HT-29 [3]; 20% in the data set with HT-29 [5]; 75.5% in the data set with HT-29 [6]; 34.8% in the data set on HT-29 [9]; 17.4% in the data set on HT-29 [10]. The Activity with HT-29 [11] is 12.7%; in [12], “Not Active”; in the data set on HT-29 [13], 4%; with HT-29 [14], 69.9%. The result with HT-29 [7] and in the data set on HT-29 [8] was Active.
